Reference: ChEMBL document CHEMBL1201862, “PubChem BioAssay data set” (2004)
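All cell lines were grown in 96-well plates and treated with compound for 48 hours. GI50 is the concentration that inhibits growth by half.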 Calls of active or inactive are those of the source. No stated cut-off is given here; in the data, active = GI50 up to about 1.1 µM and inactive = higher.

What was measured:
Assay in all cases: growth of human tumour cells (NCI), 48 h
UO-31 = tested on: UO-31
MCF7 = tested on: MCF7
M14 = tested on: M14
RXF 393 = tested on: RXF 393
IGROV-1 = tested on: IGROV-1
COLO 205 = tested on: COLO 205
SK-MEL-28 = tested on: SK-MEL-28
BT-549 = tested on: BT-549
RPMI-8226 = tested on: RPMI-8226
MDA-MB-435 = tested on: MDA-MB-435
SF-268 = tested on: SF-268
Malme-3M = tested on: Malme-3M
SF-295 = tested on: SF-295
SNB-19 = tested on: SNB-19
786-0 = tested on: 786-0
HCT-116 = tested on: HCT-116
TK-10 = tested on: TK-10
OVCAR-5 = tested on: OVCAR-5
EKVX = tested on: EKVX
CCRF-CEM = tested on: CCRF-CEM
SN12C = tested on: SN12C
Hs-578T = tested on: Hs-578T
HOP-62 = tested on: HOP-62
MDA-N = tested on: MDA-N
SR = tested on: SR
PC-3 = tested on: PC-3
UACC-257 = tested on: UACC-257
T47D = tested on: T47D
A549 = tested on: A549
SK-OV-3 = tested on: SK-OV-3
KM12 = tested on: KM12
NCI/ADR-RES = tested on: NCI/ADR-RES
U-251 = tested on: U-251
MDA-MB-231 = tested on: MDA-MB-231
NCI-H522 = tested on: NCI-H522
LOX IMVI = tested on: LOX IMVI
DU-145 = tested on: DU-145
UACC-62 = tested on: UACC-62
MOLT-4 = tested on: MOLT-4
ACHN = tested on: ACHN
NCI-H460 = tested on: NCI-H460
OVCAR-3 = tested on: OVCAR-3
CAKI-1 = tested on: CAKI-1
SK-MEL-5 = tested on: SK-MEL-5
HL-60 = tested on: HL-60
OVCAR-8 = tested on: OVCAR-8
HT-29 = tested on: HT-29
OVCAR-4 = tested on: OVCAR-4
HCT-15 = tested on: HCT-15
K562 = tested on: K562
NCI-H23 = tested on: NCI-H23
SW-620 = tested on: SW-620
SNB-75 = tested on: SNB-75
SF-539 = tested on: SF-539
SK-MEL-2 = tested on: SK-MEL-2
HCC 2998 = tested on: HCC 2998
NCI-H226 = tested on: NCI-H226
HOP-92 = tested on: HOP-92

## COc1ccc(C2Oc3ccc(Cl)cc3C=C2[N+](=O)[O-])cc1 (stereo unspecified)
UO-31
  GI50: > 100 µM (inactive)
MCF7
  GI50: > 100 µM (inactive)
M14
  GI50: > 100 µM (inactive)
RXF 393
  GI50: > 100 µM (inactive)
IGROV-1
  GI50: > 100 µM (inactive)
COLO 205
  GI50: > 100 µM (inactive)
SK-MEL-28
  GI50: > 100 µM (inactive)
BT-549
  GI50: > 100 µM (inactive)
RPMI-8226
  GI50: > 100 µM (inactive)
MDA-MB-435
  GI50: > 100 µM (inactive)
SF-268
  GI50: > 100 µM (inactive)
Malme-3M
  GI50: > 100 µM (inactive)
SF-295
  GI50: > 100 µM (inactive)
SNB-19
  GI50: > 100 µM (inactive)
786-0
  GI50: > 100 µM (inactive)
HCT-116
  GI50: > 100 µM (inactive)
TK-10
  GI50: > 100 µM (inactive)
OVCAR-5
  GI50: > 100 µM (inactive)
EKVX
  GI50: > 100 µM (inactive)
CCRF-CEM
  GI50: > 100 µM (inactive)
SN12C
  GI50: > 100 µM (inactive)
Hs-578T
  GI50: > 100 µM (inactive)
HOP-62
  GI50: > 100 µM (inactive)
MDA-N
  GI50: > 100 µM (inactive)
SR
  GI50: > 100 µM (inactive)
PC-3
  GI50: > 100 µM (inactive)
UACC-257
  GI50: > 100 µM (inactive)
T47D
  GI50: > 100 µM (inactive)
A549
  GI50: > 100 µM (inactive)
SK-OV-3
  GI50: > 100 µM (inactive)
KM12
  GI50: > 100 µM (inactive)
NCI/ADR-RES
  GI50: > 100 µM (inactive)
U-251
  GI50: > 100 µM (inactive)
MDA-MB-231
  GI50: > 100 µM (inactive)
NCI-H522
  GI50: > 100 µM (inactive)
LOX IMVI
  GI50: > 100 µM (inactive)
DU-145
  GI50: > 100 µM (inactive)
UACC-62
  GI50: > 100 µM (inactive)
MOLT-4
  GI50: > 100 µM (inactive)
ACHN
  GI50: > 100 µM (inactive)
NCI-H460
  GI50: > 100 µM (inactive)
OVCAR-3
  GI50: > 100 µM (inactive)
CAKI-1
  GI50: > 100 µM (inactive)
SK-MEL-5
  GI50: > 100 µM (inactive)
HL-60
  GI50: > 100 µM (inactive)
OVCAR-8
  GI50: > 100 µM (inactive)
HT-29
  GI50: > 100 µM (inactive)
OVCAR-4
  GI50: > 100 µM (inactive)
HCT-15
  GI50: > 100 µM
K562
  GI50: > 100 µM (inactive)
NCI-H23
  GI50: > 100 µM (inactive)

## COc1ccc(/C=c2\c(=O)[nH]c3nc4ccccc4c(=O)n23)cc1
UO-31
  GI50: 44.7 µM (inactive)
MCF7
  GI50: 49.9 µM (inactive)
SW-620
  GI50: 36.1 µM (inactive)
M14
  GI50: 75.2 µM (inactive)
RXF 393
  GI50: 46.1 µM (inactive)
IGROV-1
  GI50: 68.4 µM (inactive)
SNB-75
  GI50: 32.5 µM (inactive)
SF-539
  GI50: 46.5 µM (inactive)
COLO 205
  GI50: 60.8 µM (inactive)
SK-MEL-28
  GI50: 42.5 µM (inactive)
BT-549
  GI50: 27.3 µM (inactive)
RPMI-8226
  GI50: 58.3 µM (inactive)
MDA-MB-435
  GI50: 51.2 µM (inactive)
SF-268
  GI50: > 100 µM (inactive)
Malme-3M
  GI50: 58.5 µM (inactive)
SF-295
  GI50: > 100 µM (inactive)
SNB-19
  GI50: > 100 µM (inactive)
786-0
  GI50: 99.5 µM (inactive)
SK-MEL-2
  GI50: > 100 µM (inactive)
HCT-116
  GI50: 70 µM (inactive)
TK-10
  GI50: > 100 µM (inactive)
HCC 2998
  GI50: 80.5 µM (inactive)
OVCAR-5
  GI50: > 100 µM (inactive)
EKVX
  GI50: 54.1 µM (inactive)
CCRF-CEM
  GI50: 39.9 µM (inactive)
SN12C
  GI50: 55.1 µM (inactive)
Hs-578T
  GI50: > 100 µM (inactive)
HOP-62
  GI50: > 100 µM (inactive)
SR
  GI50: 48.2 µM (inactive)
PC-3
  GI50: > 100 µM (inactive)
UACC-257
  GI50: 88.9 µM (inactive)
T47D
  GI50: 36.5 µM (inactive)
A549
  GI50: 91.4 µM (inactive)
SK-OV-3
  GI50: > 100 µM (inactive)
KM12
  GI50: 73.5 µM (inactive)
NCI-H226
  GI50: 74.6 µM (inactive)
NCI/ADR-RES
  GI50: > 100 µM (inactive)
U-251
  GI50: > 100 µM (inactive)
MDA-MB-231
  GI50: > 100 µM (inactive)
NCI-H522
  GI50: 37.3 µM (inactive)
LOX IMVI
  GI50: 45.9 µM (inactive)
DU-145
  GI50: 61.2 µM (inactive)
UACC-62
  GI50: 42 µM (inactive)
HOP-92
  GI50: 64.7 µM (inactive)
MOLT-4
  GI50: 56.5 µM (inactive)
ACHN
  GI50: > 100 µM (inactive)
OVCAR-3
  GI50: 81.5 µM (inactive)
CAKI-1
  GI50: 55.8 µM (inactive)
SK-MEL-5
  GI50: 73.6 µM (inactive)
HL-60
  GI50: 36.2 µM (inactive)
OVCAR-8
  GI50: > 100 µM (inactive)
HT-29
  GI50: 69.8 µM (inactive)
OVCAR-4
  GI50: > 100 µM (inactive)
HCT-15
  GI50: 64 µM
NCI-H23
  GI50: 73.8 µM (inactive)
